This is an account of results in patent US5859027A, “Antimicrobial agent” (ChekTec Corporation, priority 1997, dated 1999).

A word on the remaining activity: it is the share of the control activity or signal that is left under treatment.

Where two headings read alike, the source gives them in different places.

Experiment [1] has as its target T1, FAS from S. cereviseae (Saccharomyces cerevisiae, UniProt P07149+P19097).
T1 construct: an FAS extract from Saccharomyces cerviseae was prepared; (the yeast itself); host or cells: Fleishmans' freeze dried yeast (Saccharomyces cerevisiae); dialyzed ammonium sulfate precipitate of the lysate
The experiment is described as follows: FAS inhibition assay (Example 1C). It is filed as biochemical. The protocol:
To test the compounds for FAS inhibitory activity, an FAS extract from Saccharomyces cerviseae was prepared. Freeze dried yeast (Fleishmans' freeze dried yeast, Specialty Brands, San Francisco, Calif.) 1 g, was hydrated in 5 mls deionized water for 15 minutes at 4° C. Subsequent extraction steps were conducted at a temperature between 4° C. and 10° C., except that in the cell lysis step the temperature may have briefly exceeded these boundaries. The cells were pelleted by centrifugation; the pelleted volume was measured; and the cells were resuspended in 5 vol. (5 mls per ml cell volume) extraction buffer [125 mM KH2PO4, pH 6.6, 1 mM EDTA, 1 mM DTT, 0.7 μg/ml pepstatin (Boehringer Mannheim, Indianapolis, Ind.), 0.2 μg/ml aprotinin (Boehringer Mannheim, Indianapolis, Ind.), 0.2 μg/ml leupeptin (Boehringer Mannheim, Indianapolis, Ind.)]. The cells were again pelleted and resuspended in 2 vol. extraction buffer. The cells were lysed using a bead mill homogenizer (Biospec Products, Bartlesville, OD) with a volume of glass beads equal to the volume of the yeast cells. The bead mill was operated five times for 1 minute, with 1 minute intervals between operations to allow the water jacket of the bead mill to cool the material in the mill. The lysate was centrifuged at 30,000×g for 30 minutes and the supernate was collected. Ammonium sulfate was added to the supernate to 50% saturation and the mixture was stirred for 30 minutes on ice. […]
105 μl of FAS extract was placed in each well of a polypropylene 96 well plate (Costar Corp. Cambridge, Mass.) and multiple 5 μl dilutions of compound A, compound B or negative control solution were introduced into each of the wells. […] The relative initial reaction rates in each well were measured by measuring the decrease in optical density at 340 nm using a UV Max microtiter plate reader (Molecular Devices, Sunnyvalle, Calif.).

In experiment [2] the test system is Candida albicans (strains ATCC 10231 and ATCC 10261). Description: Disk diffusion assay for antimicrobial activity (Example 2). In kind it is cell-based. The method, then: (§1) Fungal cells were grown overnight from a single colony in 2-5 ml Sabouraud Dextrose Broth at 37° C. 1-5×10^6 were spread onto Sabouraud Dextrose Agar plates (Difco, Detroit, Mich.). Sterile 6 mm filter disks were evenly spaced with at least about 22 mm separation on the plates. To each disk, 100 μg of a compound to be tested was applied in 5-10 μl DMSO. On each plate, two disks containing 2.5 and 10 μg, respectively, of Amphotericin B (Sigma) and two disks containing 2.5 and 10 μg, respectively, of cerulenin (Sigma) were used as positive controls. A disk containing only DMSO served as the negative control. The plates were incubated at 37° C. for 24 hours and the zone of growth inhibition about each disk was visually examined and measured. Compound A and compound B typically produced clear zones of 8-12 mm diameter. Amphotericin B typically produced a clear zone of 8-10 mm diameter. Cerulenin typically produced a hazy zone of 20-25 mm diameter. A clear zone is indicative of fungicidal activity, while a hazy zone is indicative of fungistatic activity.
On the technique in general: Agar diffusion results depend on both activity and mobility in agar.

Experiment [3] relates to Candida tropicalis (strain ATCC 13803). The experiment is described as above. In kind it is cell-based. The method, then:
as §1

Experiment [4] concerns the target T2, FAS of C. Albicans strain 4918 (Candida albicans, UniProt P34731+P43098).
T2 construct: endogenous in cells; host or cells: Candida albicans strain 4918 (from Dr. Ronald Cihlar, Georgetown University Medical Center)
Description: FAS activity in extracts of treated C. Albicans cultures (Example 10). In kind it is cell-based. The conditions noted are these: for remaining activity at 25 µg/mL: read-out: Percent Remaining FAS Activity. The protocol: C. Albicans strain 4918 (available from Dr. Ronald Cihlar, Georgetown University Medical Center, Washington, D.C.) was grown in minimal medium (M63 media available from Difco, Detroit, Mich.) at 37° C. to mid-log phase. 10 μg/ml cerulenin and 25 μg/ml of compound B were added to separate cultures. At 15 minute intervals, 20 ml samples were removed and extracts prepared by mechanical extraction as in Example 1C, except that the ammonium sulfate precipitation step was not applied. The extract was diluted to 1 ml to form a solution containing 0.4M potassium phosphate, pH 7.3, 0.125 μM dithiothreitol, 50 μM acetyl-CoA, 100 μM NADPH. After incubation at 37° C. for 5 minutes, 100 μM malonyl-CoA containing 0.5 μCi [2-^14 C]-malonyl-CoA (Amersham, Arlington Heights, Ill.). After 10 minutes at 37° C., the fatty acid synthesis reaction was terminated by adding 30 μl of 60% perchloric acid (v/v) and 1 ml ethanol. Four volumes of pet. ether were added to each reaction incubation to extract the fatty acids. The relative incorporation of malonyl-CoA into fatty acids was determined by liquid scintillation counting.

T2 sequence (P43098 whole entry): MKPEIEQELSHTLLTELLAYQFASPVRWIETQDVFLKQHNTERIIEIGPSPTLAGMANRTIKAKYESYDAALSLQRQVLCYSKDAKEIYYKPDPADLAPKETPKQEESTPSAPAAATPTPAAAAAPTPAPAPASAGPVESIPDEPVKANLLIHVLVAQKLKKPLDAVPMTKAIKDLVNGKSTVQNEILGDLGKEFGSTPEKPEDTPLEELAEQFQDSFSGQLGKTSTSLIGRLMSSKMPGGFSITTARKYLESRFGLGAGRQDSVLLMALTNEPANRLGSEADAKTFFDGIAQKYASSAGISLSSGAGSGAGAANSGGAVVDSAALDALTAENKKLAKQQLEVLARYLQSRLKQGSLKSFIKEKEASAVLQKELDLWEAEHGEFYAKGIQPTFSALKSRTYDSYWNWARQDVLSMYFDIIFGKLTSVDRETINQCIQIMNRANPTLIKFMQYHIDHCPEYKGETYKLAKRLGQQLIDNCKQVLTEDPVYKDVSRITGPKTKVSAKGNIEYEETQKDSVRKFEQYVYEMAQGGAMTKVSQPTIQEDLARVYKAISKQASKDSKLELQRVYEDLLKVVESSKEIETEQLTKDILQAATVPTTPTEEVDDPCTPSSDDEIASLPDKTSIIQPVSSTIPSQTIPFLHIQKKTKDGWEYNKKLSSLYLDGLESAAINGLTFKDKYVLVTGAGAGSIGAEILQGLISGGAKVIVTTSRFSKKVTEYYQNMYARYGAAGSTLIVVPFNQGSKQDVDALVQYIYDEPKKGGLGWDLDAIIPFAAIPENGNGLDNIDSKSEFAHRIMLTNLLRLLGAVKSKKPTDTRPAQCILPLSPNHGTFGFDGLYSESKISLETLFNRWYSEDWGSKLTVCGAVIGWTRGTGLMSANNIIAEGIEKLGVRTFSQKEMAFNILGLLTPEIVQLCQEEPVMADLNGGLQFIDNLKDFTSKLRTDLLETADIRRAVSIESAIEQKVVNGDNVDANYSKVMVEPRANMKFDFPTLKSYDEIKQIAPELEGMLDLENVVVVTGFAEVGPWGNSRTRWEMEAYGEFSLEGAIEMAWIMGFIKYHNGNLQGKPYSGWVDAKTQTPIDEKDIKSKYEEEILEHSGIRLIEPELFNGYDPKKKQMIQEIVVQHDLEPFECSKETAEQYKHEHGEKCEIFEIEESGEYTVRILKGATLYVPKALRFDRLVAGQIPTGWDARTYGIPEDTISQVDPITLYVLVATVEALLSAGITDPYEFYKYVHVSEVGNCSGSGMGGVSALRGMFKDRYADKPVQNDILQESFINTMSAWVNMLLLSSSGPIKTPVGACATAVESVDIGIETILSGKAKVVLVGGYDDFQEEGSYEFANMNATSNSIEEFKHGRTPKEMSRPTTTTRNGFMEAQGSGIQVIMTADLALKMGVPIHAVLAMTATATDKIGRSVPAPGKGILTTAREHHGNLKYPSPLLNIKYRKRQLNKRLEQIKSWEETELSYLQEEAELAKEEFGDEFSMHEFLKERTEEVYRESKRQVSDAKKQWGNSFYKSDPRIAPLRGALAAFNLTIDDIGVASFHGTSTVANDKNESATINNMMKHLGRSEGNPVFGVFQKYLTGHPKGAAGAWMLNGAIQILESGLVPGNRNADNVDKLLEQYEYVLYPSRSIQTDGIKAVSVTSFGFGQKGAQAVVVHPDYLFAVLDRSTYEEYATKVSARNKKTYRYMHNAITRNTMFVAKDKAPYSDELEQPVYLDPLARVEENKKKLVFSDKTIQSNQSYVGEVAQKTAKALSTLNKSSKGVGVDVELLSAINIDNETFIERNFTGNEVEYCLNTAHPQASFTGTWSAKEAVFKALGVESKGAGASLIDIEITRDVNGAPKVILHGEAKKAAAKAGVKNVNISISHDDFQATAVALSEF
T2 sequence (P34731 whole entry): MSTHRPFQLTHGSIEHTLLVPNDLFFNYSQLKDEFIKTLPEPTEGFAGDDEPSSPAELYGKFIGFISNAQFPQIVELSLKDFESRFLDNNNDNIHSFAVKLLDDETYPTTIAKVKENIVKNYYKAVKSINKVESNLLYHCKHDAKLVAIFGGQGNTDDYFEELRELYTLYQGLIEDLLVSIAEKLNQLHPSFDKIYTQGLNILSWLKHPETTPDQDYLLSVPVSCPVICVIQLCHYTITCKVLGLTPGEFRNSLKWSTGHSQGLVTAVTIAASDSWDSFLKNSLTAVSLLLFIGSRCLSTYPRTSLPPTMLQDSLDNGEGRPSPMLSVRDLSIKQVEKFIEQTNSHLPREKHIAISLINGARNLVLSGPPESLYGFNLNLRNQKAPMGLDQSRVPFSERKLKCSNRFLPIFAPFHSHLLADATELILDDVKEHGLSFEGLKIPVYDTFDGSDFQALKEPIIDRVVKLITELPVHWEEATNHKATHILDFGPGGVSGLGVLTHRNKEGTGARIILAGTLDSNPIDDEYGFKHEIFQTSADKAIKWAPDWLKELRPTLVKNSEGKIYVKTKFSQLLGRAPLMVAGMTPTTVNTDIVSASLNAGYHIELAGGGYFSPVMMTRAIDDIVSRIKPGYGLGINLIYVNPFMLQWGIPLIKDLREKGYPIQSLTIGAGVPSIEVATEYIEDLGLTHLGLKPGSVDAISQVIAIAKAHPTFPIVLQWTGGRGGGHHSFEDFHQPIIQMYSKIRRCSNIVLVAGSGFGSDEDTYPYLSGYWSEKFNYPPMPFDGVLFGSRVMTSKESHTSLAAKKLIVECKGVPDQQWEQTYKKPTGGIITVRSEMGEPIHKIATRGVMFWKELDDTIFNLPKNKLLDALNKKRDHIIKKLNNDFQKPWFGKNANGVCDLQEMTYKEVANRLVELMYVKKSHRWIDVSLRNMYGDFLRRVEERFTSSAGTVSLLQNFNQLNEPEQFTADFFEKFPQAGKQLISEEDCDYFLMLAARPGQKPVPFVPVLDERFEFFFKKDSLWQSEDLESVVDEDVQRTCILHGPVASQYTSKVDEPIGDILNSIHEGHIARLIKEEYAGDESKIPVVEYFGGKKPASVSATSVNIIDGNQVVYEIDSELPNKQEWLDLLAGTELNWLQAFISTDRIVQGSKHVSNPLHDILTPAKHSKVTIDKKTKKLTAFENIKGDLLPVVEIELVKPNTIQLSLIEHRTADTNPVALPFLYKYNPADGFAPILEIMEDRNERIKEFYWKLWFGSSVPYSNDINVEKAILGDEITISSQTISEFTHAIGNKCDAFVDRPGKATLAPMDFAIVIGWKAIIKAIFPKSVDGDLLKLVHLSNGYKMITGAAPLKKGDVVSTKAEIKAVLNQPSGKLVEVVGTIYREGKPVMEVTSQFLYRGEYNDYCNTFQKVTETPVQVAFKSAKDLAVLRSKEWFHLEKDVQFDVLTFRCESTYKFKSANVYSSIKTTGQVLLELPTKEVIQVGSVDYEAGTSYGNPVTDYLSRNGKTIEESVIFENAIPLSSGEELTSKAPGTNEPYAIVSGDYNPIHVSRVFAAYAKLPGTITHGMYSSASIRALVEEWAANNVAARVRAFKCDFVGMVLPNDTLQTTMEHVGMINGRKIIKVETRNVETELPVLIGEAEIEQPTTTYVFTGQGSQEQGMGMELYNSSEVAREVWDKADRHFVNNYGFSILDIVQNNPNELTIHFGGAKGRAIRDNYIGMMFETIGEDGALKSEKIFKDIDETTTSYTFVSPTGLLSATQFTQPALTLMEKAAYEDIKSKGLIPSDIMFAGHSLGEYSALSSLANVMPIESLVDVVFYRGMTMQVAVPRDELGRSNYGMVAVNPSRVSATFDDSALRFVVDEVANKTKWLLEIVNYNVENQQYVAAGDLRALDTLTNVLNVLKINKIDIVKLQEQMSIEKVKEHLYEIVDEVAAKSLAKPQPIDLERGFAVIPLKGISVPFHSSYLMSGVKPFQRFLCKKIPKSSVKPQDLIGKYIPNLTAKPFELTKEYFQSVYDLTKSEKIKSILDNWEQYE

In the case of `C/C=C/C=C/C=C/C1=CC2=CC(=O)C(C)(OC(=O)CC(C)O)C(=O)C2=CO1` (centres unmarked) [Compound B], in experiment [1], the “FAS inhibition in the in vitro enzyme inhibition assay (in words)” value is “not directly inhibitory of FAS”. In addition, the “antimicrobial activity (in words)” value in experiment [2] and in experiment [3] was “had antimicrobial activity” in each case. Besides, the “FAS activity of cell extracts made after exposure (in words)” value in experiment [4] is recorded as “markedly reduced FAS activity”. The remaining activity at 25 µg/mL in experiment [4] (0.25 h) was 53%; in experiment [4] (0.5 h), 40%; in experiment [4] (0.75 h) it was 35%; in experiment [4] (1 h) it was 22%.
